Source: PubChem BioAssay (NCI)
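A five-concentration, 48-hour dose response in 96-well plates underlies each endpoint, interpolated linearly between surrounding concentrations. GI50: concentration for 50% inhibition of growth. TGI denotes the concentration required for complete inhibition of growth.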

Tests used:
Assay in all cases: inhibition of tumour cell growth, NCI panel, 48 h
SK-MEL-28 melanoma = system: SK-MEL-28 melanoma
A498 renal = system: A498 renal
UACC-62 melanoma = system: UACC-62 melanoma
U251 CNS = system: U251 CNS
BT-549 breast = system: BT-549 breast
NCI-H226 lung = system: NCI-H226 lung
SF-539 CNS = system: SF-539 CNS
OVCAR-5 ovarian = system: OVCAR-5 ovarian
SK-MEL-2 melanoma = system: SK-MEL-2 melanoma
RXF 393 renal = system: RXF 393 renal
OVCAR-3 ovarian = system: OVCAR-3 ovarian
SNB-19 CNS = system: SNB-19 CNS
HL-60(TB) leukemia = system: HL-60(TB) leukemia
MALME-3M melanoma = system: MALME-3M melanoma
TK-10 renal = system: TK-10 renal
MOLT-4 leukemia = system: MOLT-4 leukemia
SK-OV-3 ovarian = system: SK-OV-3 ovarian
M14 melanoma = system: M14 melanoma
786-0 renal = system: 786-0 renal
HCT-116 colon = system: HCT-116 colon
HT29 colon = system: HT29 colon
NCI/ADR-RES ovarian = system: NCI/ADR-RES ovarian
UACC-257 melanoma = system: UACC-257 melanoma
NCI-H460 lung = system: NCI-H460 lung
SF-268 CNS = system: SF-268 CNS
DU-145 prostate = system: DU-145 prostate
SR leukemia = system: SR leukemia

Cc1ccc2c(n1)C(=O)C(Cl)=C(Nc1ccc(C(C)C)cc1)C2=O
TGI (SK-MEL-28 melanoma): 3.33 µM | GI50 (A498 renal): 12.5 µM | TGI (A498 renal): 25.2 µM | GI50 (UACC-62 melanoma): 1830 nM | TGI (UACC-62 melanoma): 3.77 µM | GI50 (U251 CNS): 1760 nM | TGI (U251 CNS): 3.51 µM | GI50 (BT-549 breast): 1510 nM | TGI (BT-549 breast): 2900 nM | GI50 (NCI-H226 lung): 1680 nM | TGI (NCI-H226 lung): 4.35 µM | GI50 (SF-539 CNS): 1620 nM | TGI (SF-539 CNS): 3.07 µM | GI50 (OVCAR-5 ovarian): 1740 nM | TGI (OVCAR-5 ovarian): 3.53 µM | GI50 (SK-MEL-2 melanoma): 1810 nM | TGI (SK-MEL-2 melanoma): 3.54 µM | GI50 (RXF 393 renal): 1490 nM | TGI (RXF 393 renal): 2850 nM | GI50 (OVCAR-3 ovarian): 1400 nM | TGI (OVCAR-3 ovarian): 2770 nM | GI50 (SNB-19 CNS): 1900 nM | TGI (SNB-19 CNS): 4.57 µM | GI50 (HL-60(TB) leukemia): 1440 nM | TGI (HL-60(TB) leukemia): 3.5 µM | GI50 (MALME-3M melanoma): 1650 nM | TGI (MALME-3M melanoma): 3.38 µM | GI50 (TK-10 renal): 2570 nM | TGI (TK-10 renal): 4.13 µM | GI50 (MOLT-4 leukemia): 2160 nM | TGI (MOLT-4 leukemia): 6.36 µM | GI50 (SK-OV-3 ovarian): 10.4 µM | TGI (SK-OV-3 ovarian): 22.3 µM | GI50 (M14 melanoma): 1700 nM | TGI (M14 melanoma): 3.25 µM | GI50 (786-0 renal): 2080 nM | TGI (786-0 renal): 4.5 µM | GI50 (HCT-116 colon): 1520 nM | TGI (HCT-116 colon): 3.41 µM | GI50 (HT29 colon): 2570 nM | TGI (HT29 colon): 6.44 µM | GI50 (NCI/ADR-RES ovarian): 2530 nM | TGI (NCI/ADR-RES ovarian): 9.2 µM | GI50 (UACC-257 melanoma): 1690 nM | TGI (UACC-257 melanoma): 3.18 µM | GI50 (NCI-H460 lung): 3.03 µM | TGI (NCI-H460 lung): 13.9 µM | GI50 (SF-268 CNS): 1760 nM | TGI (SF-268 CNS): 3.86 µM | GI50 (DU-145 prostate): 1730 nM | TGI (DU-145 prostate): 3.24 µM | GI50 (SR leukemia): 643 nM | TGI (SR leukemia): 3.48 µM
